# Source: ChEMBL document CHEMBL1154316, “Structure-activity relationship study of EphB3 receptor tyrosine kinase inhibitors” (Bioorg Med Chem Lett, 2009)
# How the values were obtained:
# [1] = Half life in mouse liver microsomes at 3 uM measured up to 60 mins; type: ADME, Microsome; conditions: for half-life at 3 µM: liver microsomes
# [2] = Intrinsic clearance in mouse liver microsomes assessed as per mg of protein at 3 uM measured up to 60 mins; type: ADME, Microsome; conditions: for microsomal CLint at 3 µM: liver microsomes
Compound,half-life at 3 µM [1] [min],microsomal CLint at 3 µM [2] [µL/min/mg],"t1/2 ([1]; microsomes, 1 h, 3 µM) [min]","CL ([2]; microsomes, 1 h, 3 µM) [µL/min/mg]"
O=C(Nc1ccccc1Cl)c1cnc2ccc(C3CCNCC3)cn12.O=C(O)C(=O)O,348,–,–,–
O=C(Nc1ccccc1Cl)c1cnn2ccc(-c3ccccc3)cc12,27,51,–,–
O=C(Nc1ccccc1Cl)c1cnn2ccc(N3CCCCC3)cc12,8.3,167,–,–
O=C(Nc1ccccc1Cl)c1cnc2ccccn12,3.8,361,–,–
O=C(Nc1ccccc1Cl)c1cnc2ccc(-c3ccccc3)cn12,53,26,–,–
O=C(Nc1ccccc1Cl)c1cnn2ccccc12,–,–,5.3,261
O=C(Nc1ccccc1Cl)c1cnc2ccc(N3CCCCC3)cn12,20,71,–,–
